molecular target: T1, BRD4_2 (Homo sapiens, UniProt O60885); experiment: Fluorescence anisotropy binding assay (competition with FITC-labeled MS417 probe), BRD4_2; settings: FITC-MS417 probe 80 nM, PBS pH 7.4, 1 hour, 25° C.
T1 construct: contains two tandem bromodomains (BrD1 and BrD2)

First: COC(=O)c1ccc(NC2=C(C)C(=O)CC2)c(I)c1 [Example 01-43, methyl 3-iodo-4-((2-methyl-3-oxocyclopent-1-en-1-yl)amino)benzoate]
Second: CC1=C(Nc2cccc(C(=O)O)c2Cl)CCC1=O [Example 01-44, 2-chloro-3((2-methyl-3-oxocyclopent-1-en-1-yl)amino)benzoic acid]
The IC50 of the first is lower: 1 to 10 µM for the first, greater than 10 µM for the second.

First: CC1=C(Nc2cc(C(=O)O)ccc2Br)CCCC1=O [Example 01-48, 4-bromo-3((2-methyl-3-oxocyclohex-1-en-1-yl)amino)benzoic acid]
Second: CC1=C(Nc2ccc3cc(C(=O)O)ccc3c2Cl)CCCC1=O [Example 01-53, 5-chloro-6-[(2-methyl-3-oxocyclohex-1-en-1-yl)amino]naphthalene-2-carboxylic acid]
The IC50 of the first is higher: greater than 10 µM for the first, 1 to 10 µM for the second.

`CC1=C(Nc2ncccc2Cl)CCCC1=O` [Example 01-49, 3-[(3-chloropyridin-2-yl)amino]-2-methylcyclohex-2-en-1-one] and `CC1=C(Nc2nccnc2Cl)CCCC1=O` [Example 01-50, 3-[(3-chloropyrazin-2-yl)amino]-2-methylcyclohex-2-en-1-one] cannot be ordered by IC50: greater than 10 µM for the first, greater than 10 µM for the second.

First: CC1=C(Nc2ccncc2Cl)CCCC1=O [Example 01-51, 3-[(3-chloropyridin-4-yl)amino]-2-methylcyclohex-2-en-1-one]
Second: CC1=C(Nc2ccc3cnccc3c2)CCCC1=O [Example 01-55, 3-[(isoquinolin-6-yl)amino]-2-methylcyclohex-2-en-1-one]
The IC50 of the first is higher: greater than 10 µM for the first, 1 to 10 µM for the second.

First: CC1=C(Nc2cc(C(=O)O)c3ccccc3c2)CCCC1=O [Example 01-52, 3-[(2-methyl-3-oxocyclohex-1-en-1-yl)amino]naphthalene-1-carboxylic acid]
Second: CC1=C(Nc2cnc3ccccc3c2)CCCC1=O [Example 01-59, 2-methyl-3-[(quinolin-3-yl)amino]cyclohex-2-en-1-one]
The IC50 of the first is lower: 1 to 10 µM for the first, greater than 10 µM for the second.

`CC1=C(Nc2ccc3ncccc3c2)CCCC1=O` [Example 01-54, 2-methyl-3-[(quinolin-6-yl)amino]cyclohex-2-en-1-one] and `CC1=C(Nc2ccc3cccnc3c2)CCCC1=O` [Example 01-57, 2-methyl-3-[(quinolin-7-yl)amino]cyclohex-2-en-1-one] fall in the same range of IC50: 1 to 10 µM for the first, 1 to 10 µM for the second.

First: CC1=C(Nc2ccc3ccncc3c2)CCCC1=O [Example 01-56, 3-[(isoquinolin-7-yl)amino]-2-methylcyclohex-2-en-1-one]
Second: CC1=C(Nc2ccc3nccnc3c2)CCCC1=O [Example 01-60, 2-methyl-3-[(quinoxalin-6-yl)amino]cyclohex-2-en-1-one]
The IC50 of the first is higher: greater than 10 µM for the first, 1 to 10 µM for the second. The second is the more potent here.

For `CC1=C(Nc2cc3ccccc3cn2)CCCC1=O` [Example 01-58, 3-[(isoquinolin-3-yl)amino]-2-methylcyclohex-2-en-1-one], the IC50 was 1 to 10 µM.

tested on: not given; experiment: not given; settings: not given

First: COC(=O)c1ccc(NC2=C(C)C(=O)CC2)c(I)c1 [Example 01-43, methyl 3-iodo-4-((2-methyl-3-oxocyclopent-1-en-1-yl)amino)benzoate]
Second: CC1=C(Nc2cccc(C(=O)O)c2Cl)CCC1=O [Example 01-44, 2-chloro-3((2-methyl-3-oxocyclopent-1-en-1-yl)amino)benzoic acid]
The melting point of the first is lower: 178 to 180 °C for the first, 230 to 232 °C for the second.

First: CC1=C(Nc2cc(C(=O)O)ccc2Br)CCCC1=O [Example 01-48, 4-bromo-3((2-methyl-3-oxocyclohex-1-en-1-yl)amino)benzoic acid]
Second: CC1=C(Nc2cc(C(=O)O)c3ccccc3c2)CCCC1=O [Example 01-52, 3-[(2-methyl-3-oxocyclohex-1-en-1-yl)amino]naphthalene-1-carboxylic acid]
The melting point of the first is lower: 265 to 267 °C for the first, 270 to 272 °C for the second.

Compared with `CC1=C(Nc2ncccc2Cl)CCCC1=O` [Example 01-49, 3-[(3-chloropyridin-2-yl)amino]-2-methylcyclohex-2-en-1-one], `CC1=C(Nc2nccnc2Cl)CCCC1=O` [Example 01-50, 3-[(3-chloropyrazin-2-yl)amino]-2-methylcyclohex-2-en-1-one] is higher in melting point: 113 to 115 °C for the first, 116 to 118 °C for the second.

Compared with `CC1=C(Nc2ccncc2Cl)CCCC1=O` [Example 01-51, 3-[(3-chloropyridin-4-yl)amino]-2-methylcyclohex-2-en-1-one], `CC1=C(Nc2ccc3cnccc3c2)CCCC1=O` [Example 01-55, 3-[(isoquinolin-6-yl)amino]-2-methylcyclohex-2-en-1-one] is higher in melting point: 135 to 138 °C for the first, 163 to 165 °C for the second.

Compared with `CC1=C(Nc2ccc3ncccc3c2)CCCC1=O` [Example 01-54, 2-methyl-3-[(quinolin-6-yl)amino]cyclohex-2-en-1-one], `CC1=C(Nc2ccc3cccnc3c2)CCCC1=O` [Example 01-57, 2-methyl-3-[(quinolin-7-yl)amino]cyclohex-2-en-1-one] is lower in melting point: 208 to 210 °C for the first, 133 to 135 °C for the second.

First: CC1=C(Nc2ccc3ccncc3c2)CCCC1=O [Example 01-56, 3-[(isoquinolin-7-yl)amino]-2-methylcyclohex-2-en-1-one]
Second: CC1=C(Nc2cnc3ccccc3c2)CCCC1=O [Example 01-59, 2-methyl-3-[(quinolin-3-yl)amino]cyclohex-2-en-1-one]
The melting point of the first is lower: 145 to 147 °C for the first, 172 to 175 °C for the second.

Compared with `CC1=C(Nc2cc3ccccc3cn2)CCCC1=O` [Example 01-58, 3-[(isoquinolin-3-yl)amino]-2-methylcyclohex-2-en-1-one], `CC1=C(Nc2ccc3nccnc3c2)CCCC1=O` [Example 01-60, 2-methyl-3-[(quinoxalin-6-yl)amino]cyclohex-2-en-1-one] is lower in melting point: 205 to 208 °C for the first, 110 to 112 °C for the second.

With `CC1=C(Nc2ccc3cc(C(=O)O)ccc3c2Cl)CCCC1=O` [Example 01-53, 5-chloro-6-[(2-methyl-3-oxocyclohex-1-en-1-yl)amino]naphthalene-2-carboxylic acid] the melting point was 272 to 275 °C (dec.).

molecular target: T2, first bromodomain (BrD1) of human BRD4 (Homo sapiens, UniProt O60885); experiment: Fluorescence anisotropy binding assay (competition with FITC-labeled MS417 probe); settings: FITC-MS417 probe 80 nM, PBS pH 7.4, 1 hour, 25° C., read-out: BRD4_1 IC50
T2 construct: the first bromodomain (BrD1) of human BRD4; poly-His (cleaved yes); made in house
Outline: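 BRD4 BrD1 (His tag removed by thrombin) at 0.25 to 1 μM competed against 80 nM FITC-labeled MS417 in PBS pH 7.4. Anisotropy read after 1 hour at 25° C. Ki derived from fitted IC50 by Nikolovska-Coleska-corrected Cheng-Prusoff equation, one-site competitive model.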

`COC(=O)c1ccc(NC2=C(C)C(=O)CC2)c(I)c1` [Example 01-43, methyl 3-iodo-4-((2-methyl-3-oxocyclopent-1-en-1-yl)amino)benzoate] and `CC1=C(Nc2cccc(C(=O)O)c2Cl)CCC1=O` [Example 01-44, 2-chloro-3((2-methyl-3-oxocyclopent-1-en-1-yl)amino)benzoic acid] fall in the same range of IC50: 1 to 10 µM for the first, 1 to 10 µM for the second.

Compared with `CC1=C(Nc2cc(C(=O)O)ccc2Br)CCCC1=O` [Example 01-48, 4-bromo-3((2-methyl-3-oxocyclohex-1-en-1-yl)amino)benzoic acid], `CC1=C(Nc2ccc3cc(C(=O)O)ccc3c2Cl)CCCC1=O` [Example 01-53, 5-chloro-6-[(2-methyl-3-oxocyclohex-1-en-1-yl)amino]naphthalene-2-carboxylic acid] is lower in IC50: 1 to 10 µM for the first, less than 1 µM for the second. The second is the more potent here.

First: CC1=C(Nc2ncccc2Cl)CCCC1=O [Example 01-49, 3-[(3-chloropyridin-2-yl)amino]-2-methylcyclohex-2-en-1-one]
Second: CC1=C(Nc2nccnc2Cl)CCCC1=O [Example 01-50, 3-[(3-chloropyrazin-2-yl)amino]-2-methylcyclohex-2-en-1-one]
The IC50 of the first is lower: 1 to 10 µM for the first, greater than 10 µM for the second.

`CC1=C(Nc2ccncc2Cl)CCCC1=O` [Example 01-51, 3-[(3-chloropyridin-4-yl)amino]-2-methylcyclohex-2-en-1-one] and `CC1=C(Nc2ccc3cnccc3c2)CCCC1=O` [Example 01-55, 3-[(isoquinolin-6-yl)amino]-2-methylcyclohex-2-en-1-one] fall in the same range of IC50: 1 to 10 µM for the first, 1 to 10 µM for the second.

`CC1=C(Nc2cc(C(=O)O)c3ccccc3c2)CCCC1=O` [Example 01-52, 3-[(2-methyl-3-oxocyclohex-1-en-1-yl)amino]naphthalene-1-carboxylic acid] and `CC1=C(Nc2cnc3ccccc3c2)CCCC1=O` [Example 01-59, 2-methyl-3-[(quinolin-3-yl)amino]cyclohex-2-en-1-one] fall in the same range of IC50: 1 to 10 µM for the first, 1 to 10 µM for the second.

`CC1=C(Nc2ccc3ncccc3c2)CCCC1=O` [Example 01-54, 2-methyl-3-[(quinolin-6-yl)amino]cyclohex-2-en-1-one] and `CC1=C(Nc2ccc3cccnc3c2)CCCC1=O` [Example 01-57, 2-methyl-3-[(quinolin-7-yl)amino]cyclohex-2-en-1-one] fall in the same range of IC50: 1 to 10 µM for the first, 1 to 10 µM for the second.

`CC1=C(Nc2ccc3ccncc3c2)CCCC1=O` [Example 01-56, 3-[(isoquinolin-7-yl)amino]-2-methylcyclohex-2-en-1-one] and `CC1=C(Nc2ccc3nccnc3c2)CCCC1=O` [Example 01-60, 2-methyl-3-[(quinoxalin-6-yl)amino]cyclohex-2-en-1-one] fall in the same range of IC50: 1 to 10 µM for the first, 1 to 10 µM for the second.

Work on `CC1=C(Nc2cc3ccccc3cn2)CCCC1=O` [Example 01-58, 3-[(isoquinolin-3-yl)amino]-2-methylcyclohex-2-en-1-one] yielded an IC50 of 1 to 10 µM.

— patent US9884806B2, “Cyclic vinylogous amides as bromodomain inhibitors” (ICAHN SCHOOL OF MEDICINE AT MOUNT SINAI, priority 2013, dated 2018)
